Assay results reported in patent US5789386A, “Fluorine-containing anthracycline derivatives having hydroxyl groups(s) mono- or di-o-aminoalkanoylated in the sugar moiety thereof” (priority 1995, dated 1998).
Values after ≈ are worked out from the molar mass of the structure shown. Like-named read-outs stand apart in the source and are kept apart here. Blank lines part the entries; values can stand above or below the compound they belong to.

Legend:
Leukemia L-1210 cells = assay: Antitumor test against leukemia L-1210 in CDF1 mice (T/C, %); format: in vivo, mouse (CDF1); details: for antitumor activities (in words): compared with FT-DM, FT-ADM, daunomycin, adriamycin or another test compound; for % Increase in life-span (T/C, %) / mice cured and surviving for 60 days or longer / mice tested: 9 days
Protocol: Thus, to evaluate the antitumor effects of the new compounds according to the first aspect of this invention against experimental tumors in animals, CDF1 mice (four mice per group) were intraperitoneally transplanted with cells of Leukemia L-1210 at an amount of 1×10^5 cells/mouse. Since an elapsed time of 24 hours from the transplantation of the leukemia cells, a test compound according to this invention was administered intraperitoneally to the mice under test for 9 consecutive days once per day. […] While, mice of the control group (the untreated group) were administered with only physiological saline after the transplantation of the L-1210 cells. During the observation period, the numbers of the surviving mice in the treated group and in the control group were counted, and the mean survival days of mice in the treated group and in the control group were then calculated. From the mean survival day (C) of the untreated mice of the control group and the mean survival day (T) of the treated mice of the treated group, there were evaluated percentages (%) of the increase in the life-span of the treated mice, as T/C %. For a comparison purpose, 7-O-(2,6-dideoxy-2-fluoro-α-L-talopyranosyl)daunomycinone (abbreviation: FT-DM); 7-O-(2,6-dideoxy-2-fluoro-α-L-talopyranosyl)adriamycinone(abbreviation: FT-ADM); and adriamycin were also tested in the same manner as above. Incidentally, the mean survival day of mice of the control group (the untreated group) was amounting to 8 to 9 days, and the mean survival day of mice of the comparative groups having received the administration of adriamycin was varying dependently on the dosage of adriamycin.
Notes; Asterisks (*) indicate that development of toxicity such as
toxicityrelated death or a body weight loss was observed on the
corresponding mice tested.

[1] = tested on: adriamycin-resistant P388 cells (P388/ADR); assay: In vitro growth inhibition of adriamycin-resistant P388 cells (P388/ADR), 72 hours; format: cell-based; details: Mus musculus, 72 hours, test compounds as trifluoroacetate, read-out: IC50
[2] = tested on: mouse leukemia, P388 cells; assay: In vitro growth inhibition of P388 cells, 72 hours; format: cell-based
[3] = P388, 72 hours, test compounds as trifluoroacetate, read-out: IC50
[4] = 0.6 mg/kg/day i.p., ">" = at least one of four mice survived 60 days or longer
[5] = 1.25 mg/kg/day i.p., ">" = at least one of four mice survived 60 days or longer
[6] = 2.5 mg/kg/day i.p., ">" = at least one of four mice survived 60 days or longer
[7] = 5 mg/kg/day i.p., ">" = at least one of four mice survived 60 days or longer

Structure (SMILES): COc1cccc2c1C(=O)c1c(O)c3c(c(O)c1C2=O)C[C@@](O)(C(=O)CO)C[C@@H]3O[C@@H]1O[C@@H](C)[C@@H](O)[C@@H](OC(=O)[C@H](C)N)[C@H]1F [Compound 8b, 7-O-(3-O-L-alanyl-2,6-dideoxy-2-fluoro-α-L-talopyranosyl)adriamycinone]
- antitumor activities (in words) (Leukemia L-1210 cells): remarkably improved antitumor activities in comparison with those of the parent compound, FT-ADM

Structure (SMILES): COc1cccc2c1C(=O)c1c(O)c3c(c(O)c1C2=O)C[C@@](O)(C(=O)CO)C[C@@H]3O[C@@H]1O[C@@H](C)[C@@H](OC(=O)[C@H](C)N)[C@@H](O)[C@H]1F [Compound 9b, 7-O-(4-O-L-alanyl-2,6-dideoxy-2-fluoro-α-L-talopyranosyl)adriamycinone]
- antitumor activities (in words) (Leukemia L-1210 cells): remarkably improved antitumor activities in comparison with those of the parent compound, FT-ADM

Structure (SMILES): COc1cccc2c1C(=O)c1c(O)c3c(c(O)c1C2=O)C[C@@](O)(C(=O)CO)C[C@@H]3O[C@@H]1O[C@@H](C)[C@@H](OC(=O)[C@@H](N)C(C)C)[C@@H](OC(=O)[C@@H](N)C(C)C)[C@H]1F [Compound 11d, 7-O-(2,6-dideoxy-2-fluoro-3,4-di-O-L-valyl-α-L-talopyranosyl)adriamycinone]
- IC50 [1]: 0.32 µg/mL (≈ 0.421 µM)
- IC50 ([2]; P388, 72 h): < 0.0098 µg/mL

- IC50 [1]: 0.27 µg/mL (≈ 0.342 µM)
- IC50 [2, 3]: 0.032 µg/mL (≈ 0.0406 µM)
Structure (SMILES): COc1cccc2c1C(=O)c1c(O)c3c(c(O)c1C2=O)C[C@@](O)(C(=O)CO)C[C@@H]3O[C@@H]1O[C@@H](C)[C@@H](OC(=O)[C@@H](N)CC(C)C)[C@@H](OC(=O)[C@@H](N)CC(C)C)[C@H]1F [Compound 11e, 7-O-(2,6-dideoxy-2-fluoro-3,4-di-O-L-leucyl-α-L-talopyranosyl)adriamycinone]

Structure (SMILES): COc1cccc2c1C(=O)c1c(O)c3c(c(O)c1C2=O)C[C@@](O)(C(=O)CO)C[C@@H]3O[C@@H]1O[C@@H](C(F)(F)F)[C@@H](OC(=O)CN)[C@@H](OC(=O)CN)[C@H]1F [Compound 18, 7-O-(2,6-dideoxy-2,6,6,6-tetrafluoro-3,4-di-O-glycyl-α-L-talopyranosyl)adriamycinone]
- IC50 [1]: 0.28 µg/mL (≈ 0.383 µM)
- IC50 [2, 3]: < 0.0098 µg/mL

Structure (SMILES): COc1cccc2c1C(=O)c1c(O)c3c(c(O)c1C2=O)C[C@@](O)(C(=O)CO)C[C@@H]3O[C@H]1C[C@H](OC(=O)CN)[C@H](OC(=O)CN)[C@H](C(F)(F)F)O1 [Compound 25, 7-O-(2,6-dideoxy-6,6,6-trifluoro-3,4-di-O-glycyl-α-L-lyxo-hexopryranosyl)adriamycinone]
- IC50 ([2]; P388, 72 h): < 0.0098 µg/mL

Structure (SMILES): COc1cccc2c1C(=O)c1c(O)c3c(c(O)c1C2=O)C[C@@](O)(C(=O)CO)C[C@@H]3O[C@@H]1O[C@@H](C(F)(F)F)[C@@H](OC(=O)[C@H](C)N)[C@@H](OC(=O)[C@H](C)N)[C@H]1F [Compound 31, 7-O-(3,4-di-O-L-alanyl-2,6-dideoxy-2,6,6,6-tetrafluoro-α-L-talopyranosyl)adriamycinone]
- IC50 [1]: 0.14 µg/mL (≈ 0.185 µM)
- IC50 [2, 3]: < 0.0098 µg/mL

Structure (SMILES): COc1cccc2c1C(=O)c1c(O)c3c(c(O)c1C2=O)C[C@@](O)(C(=O)CO)C[C@@H]3O[C@@H]1O[C@@H](C)[C@@H](O)[C@@H](O)[C@H]1F [FT-ADM, 7-O-(2,6-dideoxy-2-fluoro-α-L-talopyranosyl)adriamycinone, reference compound]
- % Increase in life-span (T/C, %) (Leukemia L-1210 cells; 0.15 mg/kg/day i.p.): 127%
- % Increase in life-span (T/C, %) (Leukemia L-1210 cells; 0.3 mg/kg/day i.p., ">" = at least one of four mice survived 60 days or longer): 182%
- % Increase in life-span (T/C, %) (Leukemia L-1210 cells; [4]): 185%
- % Increase in life-span (T/C, %) (Leukemia L-1210 cells; [5]): 275%
- mice cured and surviving for 60 days or longer / mice tested (Leukemia L-1210 cells; 2.5 mg/kg/day i.p.): 1/4
- % Increase in life-span (T/C, %) (Leukemia L-1210 cells; [6]): > 352%
- mice cured and surviving for 60 days or longer / mice tested (Leukemia L-1210 cells; 5 mg/kg/day i.p.): 4/4
- % Increase in life-span (T/C, %) (Leukemia L-1210 cells; [7]): > 740%

Structure (SMILES): COc1cccc2c1C(=O)c1c(O)c3c(c(O)c1C2=O)C[C@@](O)(C(C)=O)C[C@@H]3O[C@@H]1O[C@@H](C)[C@@H](O)[C@@H](O)[C@H]1F [FT-DM, 7-O-(2,6-dideoxy-2-fluoro-α-L-talopyranosyl)daunomycinone, reference compound]
- % Increase in life-span (T/C, %) (Leukemia L-1210 cells; 0.15 mg/kg/day i.p.): 105%
- % Increase in life-span (T/C, %) (Leukemia L-1210 cells; [4]): 125%
- % Increase in life-span (T/C, %) (Leukemia L-1210 cells; [5]): 171%
- % Increase in life-span (T/C, %) (Leukemia L-1210 cells; [6]): 217%
- % Increase in life-span (T/C, %) (Leukemia L-1210 cells; [7]): 184%
